Assay results from patent US9284274B2, “Chemical derivatives of jasmonate, pharmaceutical compositions and methods of use thereof” (RAMOT AT TEL-AVIV UNIVERSITY LTD., priority 2005, dated 2016).
Read-outs that look alike come from different tables or passages of the source.

What was measured:
[1] = system: normal lymphocytes (PBL) from healthy donors stimulated with PHA and TPA; assay: Cytotoxicity, XTT assay, normal lymphocytes (PBL); format: cell-based; details: 24 hours; for IC50: Lymphocyte, XTT, PBL pre-incubated with PHA and TPA; for Cytotoxic effect on normal lymphocytes (FIG. 1): PBL, 0.005-0.5 mM
Protocol: Mononuclear cells were isolated from peripheral blood of healthy donors by ficoll-hypaque density gradient centrifugation. The mononuclear cells were allowed to adhere to plastic dishes to remove macrophages. The non-adherent peripheral blood lymphocytes (PBL) were pre-incubated with 0.8 μg/mL PHA and 5 ng/mL TPA for 24 hours and then used in further experiments.
(§1) Cell densities were as follows: Molt-4 (at 2.5×10^4 cells in 100 μl per well), CT26 (at 5×10^3 cells in 100 μl, per well), MCF7 (at 5×10^3 cells in 100 μL per well) and PBL (at 1.5×10^5 cells in 100 μl per well) seeded in 96-well plates. Adherent cells (CT26 and MCF7) were allowed to adhere over-night.
(§2) Jasmonate-derivatives were added at concentration ranging from 0.005-0.5 mM for 24 hours. Each experimental point was performed in triplicates. Untreated cells were used as control. […] Dilutions were performed in culture medium and ethanol so that the final concentration of ethanol in each well was 0.6%.
(§3) Optical density representing viable cells was determined using the XTT Cell Proliferation Kit assay (Biological industries, Beit-Haemek, Israel).
(§4) Percentage of Optical density is directly proportional to the number of living cells in culture. Cytotoxicity (%) was calculated in the following way: [(OD of control cells−OD of drug-treated cells)/OD of control cells]×100.
(§5) Mononuclear cells were isolated from peripheral blood of healthy donors and treated as described above. The non-adherent PBL were pre-incubated with PHA and TPA as described above. Molt-4 and PBL cells were seeded in 96-well plates as described above.
(§6) Each experimental point was performed in triplicates. Untreated cells were used as control. […] Optical density and percentage of Cytotoxicity were determined as described above.

[2] = system: Molt-4 human acute lymphoblastic leukemia cell-line; assay: Cytotoxicity, XTT Cell Proliferation Kit assay, Molt-4; format: cell-based; details: 24 hours; for IC50: XTT; for Cytotoxic effect on leukemic cells (FIG. 1): Molt-4, 0.005-0.5 mM
Protocol: as §1, §2, §3, §4, §5, §6

[3] = system: CT26 murine colon carcinoma cell-line; assay: Cytotoxicity, XTT Cell Proliferation Kit assay, CT26; format: cell-based; details: Mus musculus, 24 hours, read-out: IC50 in CT-26
Protocol: as §1, §2, §3, §4

[4] = system: MCF7 human breast adenocarcinoma cell-line; assay: Cytotoxicity, XTT Cell Proliferation Kit assay, MCF7; format: cell-based; details: 24 hours, read-out: IC50 in MCF-7
Protocol: as §1, §2, §3, §4

[5] = system: basal cell carcinoma cells (cell line TE 354.T); assay: Proliferation assay using XTT reagent, basal cell carcinoma cells; format: cell-based; details: three days, read-out: IC50 inhibition of proliferation of basal cell carcinoma cells
Protocol: (§7) The effect of methyl jasmonate and compound 9 and 9A on the proliferation of squamous cell carcinoma cells (cell line A431) and basal cell carcinoma cells (cell line TE 354.T) was determined.
(§8) Cells were treated with various concentrations of methyl jasmonate and the compounds 9 and 9A for three days followed by a proliferation assay using XTT reagent (sodium 2,3,-bis(2-methoxy-4-nitro-5-sulfophenyl)-5-[(phenylamino)-carbonyl]-2H-tetrazolium inner salt).

[6] = system: squamous cell carcinoma cells (cell line A431); assay: Proliferation assay using XTT reagent, squamous cell carcinoma cells; format: cell-based; details: A431, three days, read-out: IC50 inhibition of proliferation of squamous cell carcinoma cells
Protocol: as §7, §8

[7] = system: cancer cells; details: Fingrut et al., 2005; cited from earlier work
[8] = system: lymphomas; details: U.S. Pat. No. 6,469,061; cited from earlier work
[9] = system: LXFA 749 lung, non small, adeno carcinoma, pd; assay: Clonogenic assay (TCA), LXFA 749; format: cell-based; details: Homo sapiens, LXFA 749, Adeno carcinoma, read-out: IC50 colony formation
Protocol: (§9) Cancer cells were taken directly from cancer patients, employing the Tumor-Colony-Assay: Solid human tumor xenografts growing subcutaneously in serial passages in thymus aplastic nude mice were removed and disaggregated to obtain isolated tumor cells. Viable cells were added to culture medium supplemented with agar and plated in 24-multiwell dishes. The test compound was applied in the cultures that were incubated at 37° C. for 6-20 days and monitored for colony growth using an inverted microscope. At the time of maximum colony formation, colonies were counted and 24 hours prior to evaluation, stained with a vital dye. Drug effects were expressed in terms of the percentage of colony formation, obtained by comparison of the mean number of colonies in the treated wells with the mean colony count of untreated controls. IC50 values, being the drug concentrations necessary to inhibit colony formation by 50%, were determined by plotting compound concentration versus relative colony count.

[10] = system: RXF 423 kidney hypernephroid adeno carcinoma; assay: Clonogenic assay (TCA), RXF 423; format: cell-based; details: Homo sapiens, RXF 423, Hypernephroid adeno carcinoma, read-out: IC50 colony formation
Protocol: as §9

[11] = system: CXF 280 colon adeno carcinoma, ud; assay: Clonogenic assay (TCA), CXF 280; format: cell-based; details: Homo sapiens, CXF 280, Adeno carcinoma, read-out: IC50 colony formation
Protocol: as §9

[12] = system: B16F10 melanoma cells; assay: Experimental metastasis of B16 melanoma cells to the lungs in vivo; set-up: species or system C57bl mice; details: 10 mg/kg i.v. once daily, 5 days a week for 3 weeks; lungs weighed after 22 days
Protocol: The experiment was comprised of 3 groups of C57bl mice (12-15 weeks old, n=12), total of 36 all inoculated with B16F10 melanoma cells, 0.1 ml of B16F10 in PBS×1, inoculums of 7×10^5 cells per mouse. Group M1—non treated, Group M2—treated once daily, 5 days a week for 3 weeks with Compound 9 dissolved with surfactants (10 mg/kg, diluted 1:5 with Saline, i.v.), and Group M3—a positive control group treated with Paclitaxel once in 7 days (15 mg/kg, i.v.). After 22 days, mice were sacrificed and lungs were weighed. Lungs with metastases weigh more than normal lungs (which weigh about 200 mg), and a decrease in lung weight in comparison to control tumor-bearing untreated mice signifies an anti-metastatic effect.

[13] = system: CXF 1299 colon adeno carcinoma; assay: Clonogenic assay (TCA), CXF 1299; format: cell-based; details: Homo sapiens, CXF 1299, Adeno carcinoma, read-out: IC50 colony formation
Protocol: as §9

[14] = system: RXF 1220 kidney hypernephroma, pd; assay: Clonogenic assay (TCA), RXF 1220; format: cell-based; details: Homo sapiens, RXF 1220, Hypernephroma, read-out: IC50 colony formation
Protocol: as §9

[15] = system: GXF 214 stomach adeno carcinoma, ud; assay: Clonogenic assay (TCA), GXF 214; format: cell-based; details: Homo sapiens, GXF 214, Adeno carcinoma, read-out: IC50 colony formation
Protocol: as §9

[16] = system: LXFA 1012 lung, non small, adeno carcinoma, pd; assay: Clonogenic assay (TCA), LXFA 1012; format: cell-based; details: Homo sapiens, LXFA 1012, Adeno carcinoma, read-out: IC50 colony formation
Protocol: as §9

[17] = system: CT-26 colon carcinoma cells; assay: ATP levels, CellTiter-Glo Luminescent Cell Viability Assay; format: cell-based, Murine
Protocol: CT-26 cells were exposed to compound 9 for 3 hours and ATP levels were measured using the CellTiter-Glot Luminescent Cell Viability Assay (Promega, Madison, Wis., U.S.A.). […] It thus appears that a drop in cellular energy levels may precipitate the cytotoxic effect of compound 9.

[18] = system: MAXF 1322 breast papillary adeno carcinoma, pd; assay: Clonogenic assay (TCA), MAXF 1322; format: cell-based; details: Homo sapiens, MAXF 1322, Papillary adeno carcinoma, read-out: IC50 colony formation
Protocol: as §9

[19] = system: LXFS 573 small cell lung carcinoma; assay: Clonogenic assay (TCA), LXFS 573; format: cell-based; details: Homo sapiens, read-out: IC50 colony formation
Protocol: as §9

[20] = system: LXFA 629 lung, non small, adeno carcinoma, pd; assay: Clonogenic assay (TCA), LXFA 629; format: cell-based; details: Homo sapiens, LXFA 629, Adeno carcinoma, read-out: IC50 colony formation
Protocol: as §9

[21] = system: MAXF 857 breast invasive ductal carcinoma; assay: Clonogenic assay (TCA), MAXF 857; format: cell-based; details: Homo sapiens, MAXF 857, Invasive ductal carcinoma, read-out: IC50 colony formation
Protocol: as §9

[22] = system: LXFL 430 large cell lung carcinoma, ud; assay: Clonogenic assay (TCA), LXFL 430; format: cell-based; details: Homo sapiens, non small, read-out: IC50 colony formation
Protocol: as §9

[23] = system: LXFA 1041 lung, non small, adeno carcinoma, md; assay: Clonogenic assay (TCA), LXFA 1041; format: cell-based; details: Homo sapiens, LXFA 1041, Adeno carcinoma, read-out: IC50 colony formation
Protocol: as §9

CC/C=C\CC1C(=O)CCC1CC(=O)NC(CC(C)C)C(=O)OC (centres unmarked) [Compound 10]
IC50 [1]: > 500 µM
IC50 ([2]; Homo sapiens, MOLT-4): 243 ± 39 µM
IC50 [3]: > 500 µM

CC/C=C\CC1C(=O)CCC1CC(=O)OC1OC(CO)C(O)C(O)C1O (centres unmarked) [Compound 11]
IC50 [4]: 110 ± 20 µM
IC50 [1]: 323 ± 211 µM
Cytotoxic effect on normal lymphocytes (FIG. 1) [1]: without exerting a substantial effect on normal lymphocytes
IC50 ([2]; Homo sapiens, MOLT-4): 79 ± 6 µM
Cytotoxic effect on leukemic cells (FIG. 1) [2]: kill leukemic cells
IC50 [3]: 237 ± 29 µM

CC/C=C\CC1C(=O)CCC1CC(=O)OC (centres unmarked) [Methyl jasmonate, methyl jasmonate, reference compound]
IC50 ([5]; 72 h): 16 µM
IC50 ([6]; Homo sapiens, A-431, 72 h): 14 µM
Decrease in ATP levels in cancer cells [7]: can cause a decrease in ATP levels in cancer cells
Prevention of development of lymphomas in mice [8]: effective in preventing development of lymphomas in mice

CC/C=C\CC1C(=O)CCC1CCOC(C)=O (centres unmarked) [Compound 2]
IC50 [4]: > 500 µM
IC50 [1]: > 500 µM
IC50 ([2]; Homo sapiens, MOLT-4): 440 ± 109 µM
IC50 [3]: > 500 µM

CCC1C(CC2C(=O)CCC2CC(=O)OC)C1(Cl)Cl (centres unmarked) [Compound 7]
IC50 [4]: 323 ± 75 µM
IC50 [1]: 425 ± 21 µM
IC50 ([2]; Homo sapiens, MOLT-4): 125 ± 26 µM
IC50 [3]: 393 ± 141 µM

CCCCCC1C(=O)CCC1CCO[Si](C)(C)C(C)(C)C (centres unmarked) [Compound 6]
IC50 [4]: 236 ± 180 µM
IC50 [1]: 90 ± 14 µM
IC50 ([2]; Homo sapiens, MOLT-4): 56 ± 11 µM
IC50 [3]: 263 ± 212 µM

CC/C=C\CC1C(=O)CCC1CC(=O)Oc1cccc2cccnc12 (centres unmarked) [Compound 9]
IC50 [9]: 1.7 µM
IC50 [10]: 1.69 µM
IC50 [11]: 5.44 µM
IC50 [4]: 60 ± 14 µM
Suppression of lung metastasis (lung weight, FIG. 3) [12]: very effective in suppressing lung metastasis
IC50 [13]: 1.12 µM
IC50 [14]: 6.32 µM
IC50 ([5]; 72 h): 0.049 µM
IC50 ([6]; Homo sapiens, A-431, 72 h): 0.089 µM
IC50 [1]: 200 ± 85 µM
Cytotoxic effect on normal lymphocytes (FIG. 1) [1]: without exerting a substantial effect on normal lymphocytes
IC50 ([2]; Homo sapiens, MOLT-4): 12 ± 9 µM
Cytotoxic effect on leukemic cells (FIG. 1) [2]: kill leukemic cells
IC50 [15]: 1.94 µM
IC50 [3]: 29 ± 21 µM
IC50 [16]: 1.32 µM
Drop in cellular ATP levels (FIG. 2) ([17]; 3 hours exposure, 0.2 or 0.5 mM compound): induced a significant drop in cellular ATP levels
Effect of high glucose on the ATP drop (FIG. 2) ([17]; 3 hours, high (28 mM) versus low (2 mM) glucose): this effect was decreased in the presence of high glucose levels
IC50 [18]: 1.55 µM
IC50 [19]: 1.93 µM
IC50 [20]: 1.38 µM
IC50 [21]: 1.55 µM
IC50 [22]: < 1 µM
IC50 [23]: 1.5 µM

CCC(Br)C(Br)CC1C(=O)CCC1CCO (centres unmarked) [Compound 8]
IC50 [4]: 120 ± 60 µM
IC50 [1]: 60 ± 14 µM
IC50 ([2]; Homo sapiens, MOLT-4): 50 ± 28 µM
IC50 [3]: 163 ± 42 µM

CCCCCC1C(=O)CCC1CC(=O)Oc1cccc2cccnc12 (centres unmarked) [Compound 9A]
IC50 [5]: 0.116 µM
IC50 [6]: 0.036 µM
IC50 [2]: 10 µM
